PMC5976465, “Triptolide, a HSP90 middle domain inhibitor, induces apoptosis in triple manner” (Oncotarget, 2018)

Key:
HSP90β [1] = target: T1, HSP90β (Homo sapiens, UniProt P08238); assay: colorimetric ATPase assay with recombinant protein; also MANT-ADP binding and CDC37 pulldown; assay type: biochemical
T1 construct: gene HSP90AB1; recombinant HSP90β expressed in BL21(DE3) from pET52b

HSP90β [2] = target: T2, HSP90β (Homo sapiens, UniProt P08238, C366S); assay: colorimetric ATPase assay and MANT-ADP binding assay at […] TL; assay type: biochemical
T2 construct: gene HSP90AB1; recombinant HSP90β C366S
T2 sequence (P08238 2-724 C366S): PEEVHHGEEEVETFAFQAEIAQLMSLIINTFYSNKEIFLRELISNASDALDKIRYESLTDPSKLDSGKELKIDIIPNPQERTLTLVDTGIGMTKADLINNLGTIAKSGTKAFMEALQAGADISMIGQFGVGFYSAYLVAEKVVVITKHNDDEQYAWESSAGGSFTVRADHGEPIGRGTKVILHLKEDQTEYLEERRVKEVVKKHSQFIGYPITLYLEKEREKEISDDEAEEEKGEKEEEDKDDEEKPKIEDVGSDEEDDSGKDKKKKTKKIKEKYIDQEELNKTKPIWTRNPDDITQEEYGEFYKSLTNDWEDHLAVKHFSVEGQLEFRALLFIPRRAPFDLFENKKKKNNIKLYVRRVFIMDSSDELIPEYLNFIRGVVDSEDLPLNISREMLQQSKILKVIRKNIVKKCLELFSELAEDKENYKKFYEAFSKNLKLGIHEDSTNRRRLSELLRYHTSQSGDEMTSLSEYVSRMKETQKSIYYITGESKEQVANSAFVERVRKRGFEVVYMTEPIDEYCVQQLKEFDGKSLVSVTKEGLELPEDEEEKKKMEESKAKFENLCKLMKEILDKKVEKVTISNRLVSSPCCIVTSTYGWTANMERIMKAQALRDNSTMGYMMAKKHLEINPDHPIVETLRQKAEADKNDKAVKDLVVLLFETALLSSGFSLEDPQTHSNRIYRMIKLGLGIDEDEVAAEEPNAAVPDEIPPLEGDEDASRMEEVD

T1 sequence (P08238 2-724): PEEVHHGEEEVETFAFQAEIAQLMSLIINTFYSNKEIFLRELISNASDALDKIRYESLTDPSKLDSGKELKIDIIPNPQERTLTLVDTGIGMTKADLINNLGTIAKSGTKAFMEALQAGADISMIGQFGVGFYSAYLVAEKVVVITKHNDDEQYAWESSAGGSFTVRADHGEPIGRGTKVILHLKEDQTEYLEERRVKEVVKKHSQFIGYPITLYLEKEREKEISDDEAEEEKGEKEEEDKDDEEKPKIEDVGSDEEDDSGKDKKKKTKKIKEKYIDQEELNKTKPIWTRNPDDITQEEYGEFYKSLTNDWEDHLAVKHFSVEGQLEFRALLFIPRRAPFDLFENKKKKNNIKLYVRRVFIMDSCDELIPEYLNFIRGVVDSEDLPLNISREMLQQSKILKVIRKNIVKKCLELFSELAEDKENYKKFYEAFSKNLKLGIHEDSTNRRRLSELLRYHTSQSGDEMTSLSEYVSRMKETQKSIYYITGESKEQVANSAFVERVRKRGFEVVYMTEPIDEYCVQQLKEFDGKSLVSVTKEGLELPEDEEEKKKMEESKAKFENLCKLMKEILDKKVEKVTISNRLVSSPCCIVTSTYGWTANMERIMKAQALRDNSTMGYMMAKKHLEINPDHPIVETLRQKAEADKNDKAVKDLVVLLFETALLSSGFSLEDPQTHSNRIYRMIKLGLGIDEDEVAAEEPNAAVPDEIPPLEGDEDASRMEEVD

For `CC(C)[C@]12O[C@H]1[C@@H]1O[C@]13[C@]1(O[C@H]1C[C@H]1C4=C(CC[C@@]13C)C(=O)OC4)[C@@H]2O` [TL, Triptolide], the IC50 (HSP90β [1]) was 29.9 µM and the “colorimetric ATPase assay and MANT-ADP binding assay at 50 μM TL” value (HSP90β [2]) was “TL exhibited a similar inhibitory effect on both HSP90β^WT and HSP90β^C366S”.
